{
  "source": "patent US20250154240A1",
  "about": "“ANTI-HUMAN CXCL1 ANTIBODY” (CHIOME BIOSCIENCE INC., priority 2022, published 2025)",
  "key": {"CXCR2-expressing cells [1]": {"system": "CXCR2-expressing cells", "assay": "In vivo migration inhibitory activity test on CXCR2-expressing cells, OCUM-12 orthotopic transplantation (prevention model)", "set-up": "species or system mouse", "details": "navarixin orally 100 mg/kg/day, once a day for 5 consecutive days followed by 2-day withdrawal", "excerpt": "The stomachs after measurement of the tumor size in [3-1] above were excised and fixed overnight at room temperature with a 10% neutral buffered formalin solution (Wako Pure Chemical Industries, Ltd., Japan), followed by replacement with PBS. Then, paraffin embedding and section preparation were outsourced to Applied Medical Research Laboratory, Japan. The prepared gastric tumor sections were immunohistologically stained with an anti-CXCR2 antibody to evaluate in vivo CXCR2 cell migration inhibitory activity. The sections were deparaffinized and rehydrated, and then treated to inactivate endogenous peroxidase. After antigen activation treatment, the sections were blocked with PBS containing 2% skimmed milk and 0.1% Tween-20, and reacted overnight at 4° C. with an anti-CXCR2 antibody (Biorbyt) as a primary antibody, which had been diluted to 0.3 μg/mL with the blocking solution. […]\nNavarixin is among small molecular compounds that act on CXCR2 and inhibit CXCL1-CXCR2 signaling. […] Then, using a model with OCUM-12 orthotopic transplantation, the migration inhibition of CXCR2-expressing cells and antitumor activity were evaluated in vivo for Navarixin. […]\nThe dose-response relationship between antibody dose and in vivo antitumor activity or CXCR2 migration inhibitory activity was evaluated in a xenograft prevention model with OCUM-12 orthotopic transplantation. […]"}, "CXCR2-expressing cells [2]": {"system": "CXCR2-expressing cells", "details": "known; cited from earlier work"}, "[3]": {"system": "OCUM-12 gastric cancer cell line", "assay": "Antitumor activity test, model with OCUM-12 orthotopic transplantation (prevention model)", "type": "in vivo, mouse", "details": "orally 100 mg/kg/day, once a day for 5 consecutive days followed by 2-day withdrawal", "protocol": "A model with OCUM-12 orthotopic transplantation was prepared to evaluate the above 4 types of candidate antibodies for their in vivo CXCR2 migration inhibitory activity and antitumor activity in a xenograft model with OCUM-12 orthotopic transplantation.\nFor use as mice, female nude mice (BALB/cAJcl-nu/nu) at 5 to 6 weeks of age were purchased from CLEA Japan, Inc., Japan. For use as human cancer cells, a gastric cancer cell line, OCUM-12, was provided by University Public Corporation Osaka, Japan. […]\nOn the day following the above transplantation, the mice were randomized into groups (8 or 6 mice per group) and intraperitoneally administered with PBS as a control and with 4 types of candidate antibodies (1A-7H10, 4A-2F7, 5A-5E11 and 028-8-12) and 3 types of non-candidate antibodies (1A-3C6, 1A-2H3 and 4A-5B11) at a dose of 20 mg/kg. […] After 3 weeks had passed from the transplantation, the mice were sacrificed, and the short- and long-axis diameters of tumors formed in their gastric walls were each measured with a caliper. The tumor size was calculated according to the following: 1/2 short-axis diameter (mm)×1/2 long-axis diameter (mm)×3.14. […]\nThe humanized antibodies were evaluated for their in vivo antitumor activity and CXCR2 migration inhibitory activity in a xenograft model with OCUM-12 orthotopic transplantation. […]"}},
  "data": [
    {"compound": "CC[C@@H](Nc1c(Nc2cccc(C(=O)N(C)C)c2O)c(=O)c1=O)c1ccc(C)o1", "note": "[Navarixin, reference compound]", "values": [
      {"measurement": "Migration of CXCR2-expressing cells in vivo", "setting": "CXCR2-expressing cells [1]", "value": "significantly inhibit the migration of CXCR2-expressing cells"},
      {"measurement": "Migration of CXCR2-expressing cells in vitro", "setting": "CXCR2-expressing cells [2]", "value": "known to inhibit the migration of CXCR2-expressing cells in vitro"},
      {"measurement": "Antitumor activity", "setting": "[3]", "value": "no antitumor activity was observed"}
    ]}
  ]
}
